Where a name gives a salt, the structure may show the parent alone. Read-outs that look alike come from different tables or passages of the source.
What was measured:
CRM1 [1] = target: T1, CRM1 (Homo sapiens (Human), UniProt O14980); experiment: RevGFP assay: inhibition of CRM1-mediated nuclear export; assay type: cell-based; conditions: U2OS-RevGFP cells, about 1 hr incubation; read-out: Rev Export [IC50]
Procedure: The ability of exemplary compounds of the invention to inhibit CRM1-mediated nuclear export was assessed in a RevGFP assay. Rev is a protein from human immunodeficiency virus type 1 (HIV-1) and contains a nuclear export signal (NES) in its C-terminal domain and a nuclear localization signal (NLS) in its N-terminal domain. Nuclear export of Rev protein is dependent on the classical NES/CRM1 pathway (Neville et al. 1997).
In this assay, U2OS-RevGFP cells were seeded onto clear-bottomed, black, 384-well plates the day before the experiment. Compounds were serially diluted 1:2 in DMEM, starting from 40 μM in a separate, 384-well plate, and then transferred onto the cells. The cells were incubated with compound for about 1 hr before fixation with 3.7% formaldehyde and nuclei staining with Hoechst 33258. The amount of GFP in cell nuclei was measured and the IC50 of each compound was determined (Kau et al. 2003). […]

[2] = CellTiter 96 AQueous One Solution (MTS) cell proliferation assay; assay type: cell-based; conditions: human, MM.1S multiple myeloma cells; MM.1S cells, 72 h treatment; read-out: Cytotoxicity [EC50]
Excerpt: (§1) The CellTiter 96® AQueous One Solution cell proliferation assay (Promega) was used on MM.1S multiple myeloma cell line to study the cytotoxic and cytostatic properties of the compounds. The assay is based on the cleavage of the tetrazolium salt, MTS, in the presence of an electron-coupling reagent PES (phenazine ethosulfate). The MTS tetrazolium compound is bioreduced by cells into a colored formazan product that is soluble in tissue culture medium. This conversion is presumably accomplished by NADPH or NADH produced by dehydrogenase enzymes in metabolically active cells. Assays are performed by adding a small amount of the CellTiter 96® AQueous One solution reagent directly to culture wells, incubating for 1-4 hours and then recording the absorbance at 490 nm with a 96-well plate reader.
(§2) The cells were seeded at 5×10^3 to 1.5×10^4 cells (depending on cell type) in each well of a 96-well plate in 100 μL of fresh culture medium and adherent cells were allowed to attach overnight. The stock solutions of the compounds were diluted in cell culture medium to obtain eight concentrations of each drug, ranging from 1 nM to 30 μM and DMSO at less than 1% v/v was used as a negative control. The resulting drug solutions were transferred onto the cells. After 72 h of treatment, 20 μl of CellTiter 96® AQueous reagent was added into each well of the 96-well assay plates and the plate was incubated at 37° C. for 1-4 hours in a humidified, 5% CO2 atmosphere. Then the absorbance of each well was recorded at 490 nm using a 96-well plate reader. In most cases, the assay was performed in triplicate and the results were presented as half maximal inhibitory concentration (IC50). Optical density versus compound concentration was plotted and analyzed using non-linear regression equations (IDBS XLfit) and the IC50 for each compound was calculated.

[3] = tested on: MM.1S multiple myeloma cell line; experiment: as above; assay type: cell-based
Excerpt: as §1, §2

[4] = tested on: EAE model of multiple sclerosis; conditions: 25 mg/kg and 75 mg/kg, oral gavage, 3 days per week
[5] = Pharmacokinetic (PK) assay, plasma AUC; assay type: in vivo; conditions: mouse, PO
Procedure: Pharmacokinetics (PK) play an increasing role in drug discovery and development. Pharmacokinetics is the quantitative study of the time course of drug absorption, distribution, metabolism and/or excretion. When a drug is administered, it distributes rapidly from its administration site into the systemic blood circulation. One measure of the extent of a therapeutic agent's distribution is the area under the plasma concentration-time curve (AUC), calculated to the last measured concentration (AUCt) and extrapolated to infinity (AUCinf). AUC is thus a useful metric to quantitate drug exposure. AUC. Blood was collected from mice (N=3) to contribute to the total of 10 time points (pre-dose, 5 min, 15 min, 30 min, 1 hour, 2 hours, 4 hours, 8 hours, 12 hours and 24 hours post dose). Mice were bled on a rotating basis, each mouse contributing 3 time points to the blood collection. At the designated time points, animals were anaesthetized under isoflurane, and approximately 110 μL of blood per time point was collected via retro-orbital puncture into pre-cooled K2EDTA (anti-coagulant) tubes. Blood samples were put on wet ice and centrifuged (2000 g, 5 min at 4° C.) to obtain plasma within 30 minutes of sample collection. All samples were stored frozen at approximately −80° C. until analysis. Prior to analysis, samples were mixed with internal standard (dexamethasone) in acetonitrile, vortexed, centrifuged, and supernatant was injected for analysis. Concentration of compounds in plasma was determined using LC-MS-MS instrumentation (API 4000, Triple Quadruple with electrospray ionization; Acuity Ultra Performance Liquid Chromatography column C18, with MeOH and formic acid as organic solvents). AUC values were calculated using WinNonlin Professional 6.2 software package, non-compartmental pharmacokinetic model NCA200.

HCT-116 cells [6] = experiment: Western blot of pRb and phosphorylated pRb in HCT-116 cells; assay type: cell-based; conditions: 10 μM, more than 6 hours
Procedure: HCT-116 cells were incubated with 10 μM Compound 1 for 2, 4, 6, 16, or 24 hours (indicated in FIGS. 3A and 3B as “2+,” 4+,” etc.), or with 10 μM Compound 1 for 22 hours and an additional 1 μM Compound 1 for another 2 hours (indicated in FIGS. 3A and 3B as “22+2+”). At the end of the incubation period, total protein extracts were prepared. Cytoplasmic and nuclear proteins were separated, immunoblotted and reacted with antibodies to phosphorylated pRb (pRb^phos), pRb, actin and lamin B.

HCT-116 xenografts = experiment: Inhibition of HCT-116 xenografts in vivo
Procedure: Mice were inoculated on the hind flank with HCT-116 cell line and the HCT-116 xenografts were grown to approximately 150 mm^3, at which time treatment was initiated. Treatment groups were as follows:
50 mg/kg 5-FU IP, days 1-3;
25 mg/kg Compound 1 compound QD×5 SC (low dose);
75 mg/kg Compound 1 compound QD×5 SC (high dose).

HCT-116 cells [7] = experiment: Western blot of p53, p21, PARP in cytoplasmic and nuclear fractions of HCT-116 cells; assay type: cell-based; conditions: 10 μM
Procedure: HCT-116 cells were incubated with 10 μM Compound 1 for 2, 4, 6, 16, or 24 hours (indicated in FIGS. 2A and 2B as “2+,” 4+,” etc.), or with 10 μM Compound 1 for 22 hours and an additional 1 μM Compound 1 for another 2 hours (indicated in FIGS. 2A and 2B as “22+2+”). At the end of the incubation period, total protein extracts were prepared. Cytoplasmic and nuclear proteins were separated, immunoblotted and reacted with antibodies to p53, p21, full-length (FL) PARP, cleaved PARP and lamin B.

HCT-116 cells [8] = experiment: Immunofluorescence of APC and IκB localization in HCT-116 cells; assay type: cell-based; conditions: 10 μM, 24 hours
Procedure: HCT-116 cells were incubated with 10 μM Compound 1 for 24 hours, at which time the cells were fixed and stained with antibodies to APC or IκB, or DAPI.

[9] = Brain to plasma (B:P) ratio determination; assay type: in vivo; conditions: brain and plasma; mouse, PO at 10 mg/kg, 2 hours post-dose
Excerpt: The brain to plasma (B:P) ratio is one method of quantifying the relative distribution of a therapeutic agent in brain tissue to that in circulation and, as such, provides one indication of the brain penetration of a given therapeutic agent. A high brain to plasma ratio is preferred when targeting diseases localized in the central nervous system (CNS), including the brain and the cerebrospinal fluid. However, a lower brain to plasma ratio is generally preferable for non-CNS therapeutic agents to minimize brain penetration and avoid potential side effects caused by unwanted accumulation of the therapeutic agents in the brain and CNS tissue.
Brain to Plasma (B:P) Ratio. […] Following collection, brain tissue was rinsed with cold saline, dried on filter paper, weighed and snap-frozen by placing on dry ice. All samples were stored frozen at approximately −80° C. until analysis. […] Plasma samples were treated with the identical method (except homogenization step) and the concentration of compound in each matrix was calculated based on generated standard curves.

HCT-116 cells [10] = experiment: Immunofluorescence of pRb localization in HCT-116 cells; assay type: cell-based; conditions: 10 μM, 24 hours
Procedure: HCT-116 cells were incubated with 10 μM Compound 1 for 24 hours, at which time the cells were fixed and stained with antibodies to pRb or DAPI.

CRM1 [11] = target: T1, CRM1; experiment: Immunofluorescence of p21 and p53 localization in HCT-116 cells; assay type: cell-based; conditions: 10 μM, 24 hours
Procedure: HCT-116 cells were incubated with 10 μM Compound 1 for 24 hours, at which time the cells were fixed and stained with antibodies to p21 or p53, or the DNA stain, DAPI.

[12] = tested on: splenocytes and circulating CD8 cells; experiment: FACS of immune cells at day 26 of the EAE model; assay type: in vivo, mouse; conditions: day 26, high dose (75 mg/kg)
Excerpt: On day 26, a subset of mice was sacrificed and immune cells were subjected to fluorescence-activated cell sorting (FACS) using standard methods.

[13] = MM.1S cells, 72 h treatment, read-out: Cytotoxicity [EC50]

T1 sequence (O14980 whole entry, the tested form may be a part): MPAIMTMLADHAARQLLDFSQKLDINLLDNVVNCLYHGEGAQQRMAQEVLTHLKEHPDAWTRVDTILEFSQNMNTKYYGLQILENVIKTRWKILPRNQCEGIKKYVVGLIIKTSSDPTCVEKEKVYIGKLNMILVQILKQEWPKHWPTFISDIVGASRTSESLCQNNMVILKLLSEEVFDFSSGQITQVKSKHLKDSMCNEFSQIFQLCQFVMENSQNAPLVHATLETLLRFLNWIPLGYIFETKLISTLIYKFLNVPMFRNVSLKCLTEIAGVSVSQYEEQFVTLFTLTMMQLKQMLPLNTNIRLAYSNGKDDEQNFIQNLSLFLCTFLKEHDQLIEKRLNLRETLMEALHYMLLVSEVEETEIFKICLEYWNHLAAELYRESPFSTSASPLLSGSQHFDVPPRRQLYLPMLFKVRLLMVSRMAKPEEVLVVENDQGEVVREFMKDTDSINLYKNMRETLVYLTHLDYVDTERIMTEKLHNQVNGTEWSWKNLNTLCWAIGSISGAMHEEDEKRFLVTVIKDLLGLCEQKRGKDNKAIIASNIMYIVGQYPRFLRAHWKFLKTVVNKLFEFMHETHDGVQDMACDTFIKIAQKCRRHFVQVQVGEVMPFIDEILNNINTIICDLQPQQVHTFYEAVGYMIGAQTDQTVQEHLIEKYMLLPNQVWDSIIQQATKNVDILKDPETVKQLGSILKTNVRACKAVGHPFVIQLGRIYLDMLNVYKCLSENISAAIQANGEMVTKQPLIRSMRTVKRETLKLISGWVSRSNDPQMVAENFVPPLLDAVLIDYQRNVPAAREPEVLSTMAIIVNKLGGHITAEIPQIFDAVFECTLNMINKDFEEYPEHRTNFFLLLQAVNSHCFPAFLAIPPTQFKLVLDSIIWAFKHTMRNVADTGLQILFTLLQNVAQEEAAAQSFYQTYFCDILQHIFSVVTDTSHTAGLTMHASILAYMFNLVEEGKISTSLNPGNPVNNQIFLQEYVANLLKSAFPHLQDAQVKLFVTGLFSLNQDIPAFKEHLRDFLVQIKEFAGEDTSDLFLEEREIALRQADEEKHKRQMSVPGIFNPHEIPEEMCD

**Q.** Which IC50 (CRM1 [1]) does the source give for O=C(/C=C\n1cnc(-c2cc(C(F)(F)F)cc(C(F)(F)F)c2)n1)NC1C2CNCC21 (stereo not drawn) [Compound 56, (Z)—N-(3-azabicyclo[3.1.0]hexan-6-yl)-3-(3-(3,5-bis(trifluoromethyl)phenyl)-1H-1,2,4-triazol-1-yl)acrylamide hydrochloride] here?
**A.** < 1000 nM

**Q.** What about the EC50 at 72 h [2] of the same compound?
**A.** < 1000 nM

**Q.** Which IC50 (CRM1 [1]) does the source give for O=C(/C=C/n1cnc(-c2cc(C(F)(F)F)cc(C(F)(F)F)c2)n1)N1CC(F)(F)C1 [Compound 4, (E)-3-(3-(3,5-bis(trifluoromethyl)phenyl)-1H-1,2,4-triazol-1-yl)-1-(3,3-difluoroazetidin-1-yl)prop-2-en-1-one] here?
**A.** < 1000 nM

**Q.** What about the EC50 at 72 h [2] of the same compound?
**A.** < 1000 nM

**Q.** For “(Z)-3-(2-(3,5-bis(trifluoromethyl)phenyl)-1H-pyrrol-1-yl)-1-(3,3-difluoroazetidin-1-yl)prop-2-en-1-one [Compound 65]”, which EC50 [3, 13] is on record?
**A.** > 10 µM

**Q.** With “(E)-3-(6-(3,5-bis(trifluoromethyl)phenyl)pyridin-2-yl)-1-(3,3-difluoroazetidin-1-yl)prop-2-en-1-one [Compound 15]” as the compound, how does the EC50 [3] read?
**A.** > 10 µM

**Q.** Which EC50 [3, 13] does the source give for “(Z)-3-(3-(3,5-bis(trifluoromethyl)phenyl)-1H-1,2,4-triazole-1-yl)-N-(1-(5-methylpyrimidine-2-yl)ethyl)acrylamide [Compound 21]” here?
**A.** 1 to 10 µM

**Q.** For O=C(/C=C\n1cnc(-c2cc(C(F)(F)F)cc(C(F)(F)F)c2)n1)N1CC(F)(F)C1 [Compound 1, (Z)-3-(3-(3,5-bis(trifluoromethyl)phenyl)-1H-1,2,4-triazol-1-yl)-1-(3,3-difluoroazetidin-1-yl)prop-2-en-1-one], which EAE clinical score [4] is on record?
**A.** reduced the clinical score in a statistically significant manner

**Q.** What about the EC50 at 72 h [2] of the same compound?
**A.** < 1000 nM

**Q.** What about the AUC(0-inf) ([5]; 10 mg/kg, 10 mpk, read-out: AUCInf hr * ng/mL (mouse, PO, 10 mpk)) of the same compound?
**A.** 12300 ng·h/mL

**Q.** And the “Phosphorylation state of pRb (Western blot)” value (HCT-116 cells [6])?
**A.** induces dephosphorylation of pRb in both cytoplasmic and nuclear fractions

**Q.** What about the “Tumor growth (tumor volume as percentage of initial volume)” value (HCT-116 xenografts; 25 or 75 mg/kg QDx5 SC, HCT-116 xenograft mice) of the same compound?
**A.** inhibited tumor growth

**Q.** And the “Anti-tumor effect compared to 5-FU” value (HCT-116 xenografts; vs 50 mg/kg 5-FU IP days 1-3)?
**A.** superior anti-tumor effects compared to 5-FU

**Q.** And the “Induction of p21 and p53 (Western blot)” value (HCT-116 cells [7]; 2-24 hours)?
**A.** induces p21 and p53 in both cytoplasmic and nuclear fractions

**Q.** And the “Induction of apoptosis (PARP decrease, cleaved PARP increase)” value (HCT-116 cells [7]; 24 hours)?
**A.** induces apoptosis in HCT-116 cells after 24 hours

**Q.** What about the “Nuclear localization of APC and IκB” value (HCT-116 cells [8]) of the same compound?
**A.** induced the nuclear localization of the tumor suppressor proteins, APC and IκB

**Q.** What about the Kp at 2 h [9] of the same compound?
**A.** 5

**Q.** And the “Nuclear localization of pRb” value (HCT-116 cells [10])?
**A.** induced nuclear localization of the tumor suppressor gene protein, pRb

**Q.** And the “Nuclear export function of CRM1” value (CRM1 [11])?
**A.** inhibited the nuclear export function of CRM1

**Q.** What about the “Subcellular localization of p21 and p53” value (CRM1 [11]) of the same compound?
**A.** both p21 and p53 were concentrated in the nucleus

**Q.** What about the “Number of splenocytes and circulating CD8 cells (FACS)” value [12] of the same compound?
**A.** modest decrease in the number of splenocytes and circulating CD8 cells

**Q.** What does the source list for NCC1(F)CN(C(=O)/C=C\n2cnc(-c3cc(C(F)(F)F)cc(C(F)(F)F)c3)n2)C1 [Compound 60, (Z)-1-(3-(aminomethyl)-3-fluoroazetidin-1-yl)-3-(3-(3,5-bis(trifluoromethyl)phenyl)-1H-1,2,4-triazol-1-yl)prop-2-en-1-one]?
**A.** EC50 at 72 h [2]: < 1000 nM; AUC(0-inf) ([5]; 5 mg/kg, 5 mpk, read-out: AUCInf hr * ng/mL (mouse, PO), tested at 5 mpk): 1240 ng·h/mL; Kp at 2 h [9]: 13.3

— patent US20240376114A1, “NUCLEAR TRANSPORT MODULATORS AND USES THEREOF” (Karyopharm Therapeutics Inc., priority 2011, published 2024)
